The subject of assay [1] is MDA-MB-231 triple negative breast cancer cell line. Kind of assay: MTT cytotoxicity assay, MDA-MB-231. In kind it is cell-based. The settings on record: 12 h incubation, normalized to TRAIL, GraphPad Prism. How it is done: (§1) Herein, a panel of triple negative breast cancer (TNBC) cell lines, MDA-MB-231, HCC-38, and BT-549, were used.
(§2) Triple negative breast cancer cell lines MDA-MB-231, HCC-38, and BT-549 cell lines (provided by Prof. Ruth Keri, Case Western Reserve University) and HER-2 amplified breast cancer cell line SK-BR-3 (ATCC). MDA-MB-231, HCC-38, BT-549, and SK-BR-3 were cultured in Dulbecco's modified Eagle's medium (DMEM) and Roswell Park Memorial Institute (RPMI) 1640 medium without or with insulin (0.023 IU/mL final concentration), and McCoy's 5A medium, respectively. All media were supplemented with 10% (v/v) fetal bovine serum (FBS) and 1% (v/v) penicillin/streptomycin. All cells were maintained at 37° C. and 5% CO2.
(§3) Cells (MDA-MB-231, HCC-38, BT-549, and SK-BR-3) were seeded at 5,000 cells per well in culture medium in 96-well plates 1 day prior to treatment. […] Samples were prepared in triplicate and each assay was performed at least twice. […] Following incubation, cells were washed with PBS, pH 7.4 and fresh medium was replenished; then 10 μL MTT reagent was added as per manufacturer's instructions. Absorbance was determined using the Tecan infinite-M200 plate reader.
(Formazan colour is commonly taken as a measure of viable cells.)

The test system of assay [2] is SK-BR-3, HER2-amplified breast cancer cell line. Kind of assay: MTT cytotoxicity assay, SK-BR-3. In kind it is cell-based. The conditions noted are these: HER-2 amplified breast cancer cell line. How it is done:
Data are expressed as means±SD.
as §1, §2, §3

Assay [3] has as its system caspase-3/7. In words: Caspase-Glo 3/7 assay in MDA-MB-231 cells. The conditions noted are these: 20 ng/mL HisTRAIL, 3 h. The format is cell-based. An excerpt:
(§4) TRAIL-DR4/5 receptor binding activates caspase-dependent apoptosis. Specifically, TRAIL-DR4/5 receptor binding induces receptor oligomerization, followed by the recruitment of FAS-associated protein with death domain (FADD) and pro-caspase-8 to form a functional death-inducing signaling complex (DISC) at the plasma membrane. Subsequently, caspase-8 is activated and released into the cytosol, where it cleaves and activates caspase-3 or -7 to execute the apoptosis in cancer cells (FIG. 4). […] The drugs were incubated with MDA-MB-231 cells for 3 h before adding reagents from Caspase-Glo 8 and Caspase-Glo 3/7 Assay Kit. The assay was performed as per manufacturer's instructions.
(§5) Determination of levels of activated caspase-8 and caspase-3/7 MDA-MB-231 cells were seeded at 5,000 cells per well in a white-walled 96-well luminometer microplate one day prior to treatment. […] Non-treated cells were used as control. Samples were prepared in triplicate. Caspase-Glo 8 assay kit and Caspase-Glo 3/7 assay kit (Promega) were used to determine the level of activated caspases. Briefly, the reagent causes cell lysis, followed by caspase cleavage of the substrate and aminoluciferin which produces a luminescent signal in the presence of luciferase and ATP from the kit. Luminescence was read by the Tecan infinite-M200 plate reader to determine the proportional activated level of caspase 8- and 3/7.

Assay [4] has as its system caspase-8. Kind of assay: Caspase-Glo 8 assay in MDA-MB-231 cells. The settings on record: 20 ng/mL HisTRAIL, 3 h. The format is cell-based.
Source text: as §4, §5

In assay [5] the test system is HCC-38 cell line (TNBC). Kind of assay: MTT cytotoxicity assay, HCC-38. The format is cell-based. The conditions noted are these: 12 h incubation, normalized to TRAIL, GraphPad Prism. The method, then: as §1, §2, §3
Assay [6] concerns BT-549 cell line (TNBC). In words: MTT cytotoxicity assay, BT-549. The format is cell-based. The conditions noted are these: 12 h incubation, normalized to TRAIL, GraphPad Prism. The method, then:
as §1, §2, §3

Assay [7] has as its system subcutaneous MDA-MB-231 tumors. In words: Treatment of MDA-MB-231 xenografts in athymic nude mice. In kind it is in vivo, mouse. How it is done: FIGS. 3(A-C) are graphs and images illustrating treatment of MDA-MB-231 xenografts in an athymic nude mouse model. 6-week-old female NCR nu/nu mice were injected subcutaneously into the right flank with 2×10^6 cells; treatment began when tumor volume reached 100-150 mm^3, approximately 2 weeks after tumor cell inoculation. […] 20 μL PBS or corresponding particle amount of PVXNi were injected as controls. Tumor volume was normalized at the initial day. Data were expressed as expressed as means+SD. (A) Tumor growth curve during treatment. (B) Tumor volume distribution in each group during treatment. (C) Representative of isolated tumor tissues after treatment.
Treatment started when the tumor volume reached 100-150 mm^3. […] While we envision systemic administration for clinical applications, we started here by evaluating intratumoral treatments to focus on the question as to whether PVX-delivered HisTRAIL would outperform free HisTRAIL; the intratumoral treatment allows one to precisely control and match the dosing, and, thus, eliminates confounding factors from varying biodistribution. […]
The animal study was carried using an IACUC-approved protocol. […] Tumors were measured daily and the volume was calculated using the formula v=(l×w^2)/2, where l is the length and w is the width of tumor. […] All results are expressed as means±SD, calculated by GraphPad Prism. […]

For assay [8] the following is noted: background statement; cited from earlier work.

“Also recorded” adds a separate entry of the source.

Consider “HisTRAIL: Recombinant human TRAIL (aa 114-281) with N-terminal His-tag and thrombin cleavage sequence, expressed in ClearColi BL21(DE)3”, for which the “IC50 values, MDA-MB-231” value in assay [1] is 86.6 ng/mL; in assay [1] (listed as HiTRAIL) it was 86.8 ng/mL. The “cell killing / apoptosis induction in SK-BR-3” value in assay [2] is reported as “Neither PVX-HisTRAIL nor HisTRAIL did induce apoptosis; also recorded: did not show cell killing efficacy”. Further, in assay [3], the “caspase 3/7 increase vs. PBS controls” value is reported as 1.5 fold. Also, the “level of caspase 8, increase compared to PBS control” value in assay [4] was 1.38 fold. Also, in assay [5], the “IC50 values, HCC-38” value stood at 367.2 ng/mL. Besides, in assay [6], the “IC50 values, BT-549” value amounted to 543.0 ng/mL. Also, the “average relative tumor volume increase vs. starting volume” value in assay [7] (day 30 post first treatment, intratumoral every 2 days, 5 μg His-TRAIL/injection (PVX-Ni at corresponding particle amount)) is given as 2.53 fold. Also, in assay [7] (intratumoral, athymic nude mice with MDA-MB-231 tumors, vs PBS control), the “tumor growth inhibition (in words)” value is reported as “effective inhibition”.
For the substance phenanthriplatin, in assay [8], the “potency compared to cisplatin, carboplatin and oxalatoplatin” value is 40 ×.

The values are drawn from patent publication US12251410B2, “Anticancer trail-targeted plant virus particles” (CASE WESTERN RESERVE UNIVERSITY, priority 2017, dated 2025).
